For one assay, the target named is T1, KRAS G12D protein (Homo sapiens, UniProt P01116, G12D).
T1 construct: host or cells: AsPC-1
In words: KRAS degradation activity by Cell ELISA in AsPC-1 (Test Example 1). It is filed as cell-based. As to conditions: AsPC-1 cells, cultured overnight with compound, corrected with β-actin, read-out: DC50 (50% degradation concentration of the amounts of KRAS). On the procedure: Test Example 1: Evaluation of KRAS Degradation Activity on Human G12D Mutant KRAS-Positive Pancreatic Cancer Line AsPC-1 (CRL-1682; ATCC)
The KRAS degradation activity of test compounds was evaluated by measuring the expression levels of KRAS G12D protein by Cell ELISA.
AsPC-1 cells were seeded at 20 μL per well on 384-well plates (from Greiner bio-one) to give 2.0×10^4 cells per well. As for the cell culture conditions, RPMI 1640 (from Sigma-Aldrich) medium containing 10% fetal bovine serum (from Cytiva) was used in the presence of 5% CO2 at 37° C.
The next day, the test compounds (10 points having final concentrations in the range of 10 μM to 0.3 nM) and DMSO (from FUJIFILM Wako Pure Chemical Corporation), which was the solvent for the test compounds, as a negative control were diluted 500-fold with a fresh medium and were added at 20 μL per well. The cells were cultured overnight.
The next day, the culture supernatant was removed, and 4% paraformaldehyde phosphate buffer (from FUJIFILM Wako Pure Chemical Corporation) was added at 20 μL per well. The plates were allowed to stand for 30 minutes at room temperature to thus immobilize the cells. Then, the supernatant was removed, and 0.1% Triton X-100 (from Amersham Biosciences)-containing Phosphate buffered saline (PBS; from FUJIFILM Wako Pure Chemical Corporation) was added at 20 μL per well. After allowing to stand for 10 minutes at room temperature, the supernatant was removed. PBS was added at 25 μL per well, and the supernatant was removed to thus wash each well. The washing was performed twice in total. Next, the supernatant was removed, and 0.5% sodium dodecyl sulfate (SDS; from Invitrogen)-containing PBS was added at 20 μL per well. After allowing to stand at room temperature for 10 minutes, the supernatant was removed by a centrifugal operation (using a centrifugal dehydrator machine, the supernatant was removed by the same method hereinafter). PBS was added at 25 μL per well, and the supernatant was removed to thus wash each well. The washing was performed twice in total. The supernatant was removed, and blocking solution (Intercept Blocking Buffer; from Li-COR Biosciences) was added at 20 μL per well. After allowing to stand for 30 minutes at room temperature, the supernatant was removed, and a solution obtained by diluting anti-β-actin antibody (Anti-beta Actin antibody [mAbcam 8226]-Loading Control; from abcam) 1,000-fold with blocking solution and a solution obtained by diluting anti-Ras (G12D Mutant Specific) antibody (Ras (G12D Mutant Specific) (D8H7) Rabbit mAb #14429; from Cell Signaling Technology) and anti-β-actin antibody (from abcam) 1,000-fold with blocking solution were respectively added to positive control wells and the other wells at 20 μL per well as a primary antibody. The plate was allowed to stand overnight at 4° C.
The next day, the supernatant was removed. PBS was added at 25 μL per well, and the supernatant was removed to thus wash each well. The washing was performed twice in total. The supernatant was removed, and a solution obtained by diluting Donkey anti-Mouse IgG H&L (IRDye 680RD) (from Li-COR Biosciences) and Goat anti-Rabbit IgG H&L (IRDye 800CW) (from Li-COR Biosciences) 1,000-fold with blocking solution was added at 20 μL per well as a secondary antibody. After allowing to stand for 1 hour at room temperature, the supernatant was removed. PBS was added at 25 μL per well, and the supernatant was removed to thus wash each well. The washing was performed twice in total. After removing the supernatant, the plate was dried with air at room temperature for 2 hours or more, and the 700 nm and 800 nm fluorescent signals were measured with Aerius (from Li-COR Biosciences). […]
(In general: ELISA stands for enzyme-linked immunosorbent assay.)

For assay [1], the system named is human G12D mutant KRAS-positive pancreatic cancer line AsPC-1. In words: Non-anchorage-dependent cell growth inhibition, spheroid 3D cell culture (Test Example 3). It is filed as cell-based. As to conditions: Homo sapiens, ASPC1, 144 h, AsPC-1 spheroid 3D culture, 6 days, CellTiter Glo 2.0. Here is the method: Test Example 3: Evaluation of Non-Anchorage-Dependent Cell Growth Inhibitory Effect on Human G12D Mutant KRAS-Positive Pancreatic Cancer Line AsPC-1
The non-anchorage-dependent cell growth inhibitory effect of test compounds was evaluated by spheroid 3D cell culture.
AsPC-1 cells were seeded on low-cell-adhesive round bottom 384-well plates (PrimeSurface: from Sumitomo Bakelite) at 36 μL/well to give 5×10^2 cells per well. As for the cell culture conditions, RPMI 1640 medium containing 10% fetal bovine serum was used in the presence of 5% CO2 at 37° C.
The next day, the test compounds (10 or 6 points having final concentrations in the range of 10 μM to 0.3 nM) and DMSO, which was the solvent for the test compounds, as a negative control were diluted 100-fold with a fresh medium and were added at 4 μL per well. After culturing in the presence of 5% CO2 at 37° C. for 6 days, CellTiter Glo 2.0 (from Promega) was added at 20 μL per well. After stirring with a plate mixer (from FINEPCR) at room temperature for 1 hour, the luminescent signals were measured with ARVO X3 (from PerkinElmer).
With the signaling value in treatment with DMSO taken as 100% and with the signaling value in the medium alone without cells taken as 0%, the 50% inhibitory concentration values (IC50) were calculated by Sigmoid-Emax nonlinear regression analysis.
Background: In ATP-based viability assays light output follows the ATP content of the culture.

Assay [2] deals with phosphorylation of threonine 202 (Thr202) and tyrosine 204 (Tyr204) of ERK. In words: ERK phosphorylation inhibitory effect by Cell ELISA in AsPC-1 (Test Example 2). It is filed as cell-based, human. To be noted: Homo sapiens, ASPC1, AsPC-1 cells, cultured overnight with compound; 1 μM trametinib taken as 0%. Here is the method:
Test Example 2: Evaluation of ERK Phosphorylation Inhibitory Effect on Human G12D Mutant KRAS-Positive Pancreatic Cancer Line AsPC-1
The ERK phosphorylation inhibitory effect of test compounds was evaluated by measuring phosphorylation of threonine 202 (Thr202) and tyrosine 204 (Tyr204) of ERK located downstream of the KRAS signal by Cell ELISA.
AsPC-1 cells were seeded on 384-well plates at 36 μL/well to give 2.0×10^4 cells per well. As for the cell culture conditions, RPMI 1640 medium containing 10% fetal bovine serum was used in the presence of 5% CO2 at 37° C.
The next day, the test compounds (10 points having final concentrations in the range of 10 μM to 0.3 nM), trametinib (MEK inhibitor) of a final concentration of 1 μM as positive control and DMSO, which was the solvent for the test compounds, as negative control were diluted 100-fold with a fresh medium and were added at 4 μL per well. The cells were cultured overnight. After culturing, 30% glyoxal solution (40% glyoxal [from Nacalai Tesque] was diluted with PBS) was quickly added at 30 μL per well, and the plate was allowed to stand for 60 minutes at room temperature to thus immobilize the cells. Then, the plate was centrifuged to remove the supernatant (using a centrifugal dehydrator machine, the supernatant was removed by the same method hereinafter), and 0.1% Triton X-100-containing PBS was added at 20 μL per well. After allowing to stand for 10 minutes at room temperature, the supernatant was removed, and the same operation was further repeated. Next, 0.5% SDS-containing PBS was added at 20 μL per well, and after allowing to stand at room temperature for 30 minutes, the supernatant was removed. Subsequently, blocking solution (Intercept Blocking Buffer) was added at 20 μL per well, and the plate was allowed to stand for 1 hour at room temperature. The supernatant was removed, and an ERK (Thr202/Tyr204) phosphorylation antibody (Phospho-p44/42 MAPK (Erk 1/2) (Thr202/Tyr204) (D13.14.4E) XP Rabbit mAb; from Cell Signaling Technology) diluted 2,500-fold with blocking solution was added at 15 μL per well as a primary antibody. The plates were allowed to stand at 4° C. overnight.
The next day, the supernatant was removed. 0.05% Tween-20 (from Thermo Fisher Scientific)-containing PBS was added at 50 μL per well, and the supernatant was removed to thus wash each well. The washing was performed three times in total. After washing, Goat anti-Rabbit IgG H&L (IRDye 800CW) diluted 1,000-fold with blocking solution was added at 15 μL per well as a secondary antibody, and the plates were allowed to stand for 1 hour at room temperature. The supernatant was removed, and each well was washed three times with 0.05% Tween-20-containing PBS in the same manner as after the primary antibody reaction. After removing the supernatant, the plates were dried with air at room temperature for 3 hours or more, and the 800-nm fluorescent signals were measured with Aerius.
With the signaling value at the time of addition of DMSO taken as 100% and with the signaling value at the time of addition of 1 μM trametinib taken as 0%, the 50% inhibitory concentration values (IC50) were calculated by Sigmoid-Emax nonlinear regression analysis.

T1 sequence (P01116 1-188 isoform P01116-2 G12D): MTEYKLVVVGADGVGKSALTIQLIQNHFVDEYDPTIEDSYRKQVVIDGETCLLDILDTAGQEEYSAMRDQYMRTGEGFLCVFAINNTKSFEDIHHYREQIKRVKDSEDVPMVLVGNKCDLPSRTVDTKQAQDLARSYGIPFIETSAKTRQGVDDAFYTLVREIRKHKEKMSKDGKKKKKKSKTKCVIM

As a reminder, the IC50 is the point on the concentration scale where inhibition reaches its midpoint. Turning to `CO[C@@H](C)COc1nc(N(C)[C@H]2CCNC2)c2cc(C3CC3)c(-c3c(C)c(F)cc4[nH]ncc34)c(OCc3ccc(-c4cn([C@H](C(=O)N5C[C@H](O)C[C@H]5C(=O)N[C@@H](CO)c5ccc(N6CCOC6=O)cc5)C(C)C)nn4)cc3)c2n1` (atropisomer, axis not shown) [Example 15], at KRAS G12D protein, the DC50 came out at 0.099 µM. In addition, the IC50 in assay [1] and in assay [2] was 0.007 µM each time.

For the molecule `CO[C@H](C)COc1nc(N(C)[C@H]2CCNC2)c2cc(C3CC3)c(-c3c(C)c(F)cc4[nH]ncc34)c(OCc3ccc(-c4cn([C@H](C(=O)N5C[C@H](O)C[C@H]5C(=O)N[C@@H](CO)c5ccc(-c6scnc6C)cc5)C(C)C)nn4)cc3)c2n1` (atropisomer, axis not shown) [Example 16], the DC50 at KRAS G12D protein is 0.026 µM. For the same molecule, the figures for the IC50 in assay [1] and in assay [2] were 0.014 µM and 0.016 µM, respectively.

Take `Cc1ncsc1-c1ccc([C@H](CO)NC(=O)[C@@H]2C[C@@H](O)CN2C(=O)[C@H](C(C)C)n2cc(-c3ccc(COc4c(-c5c(C)c(F)cc6[nH]ncc56)c(C5CC5)cc5c(N(C)[C@H]6CCNC6)nc(OC[C@H]6CCOC6)nc45)cc3)nn2)cc1` (atropisomer, axis not shown) [Example 17]: the DC50 at KRAS G12D protein turned out to be 0.074 µM. Further, the IC50 is 0.008 µM in assay [1] and 0.007 µM in assay [2].

For `Cc1ncsc1-c1ccc([C@H](CO)NC(=O)[C@@H]2C[C@@H](O)CN2C(=O)[C@H](C(C)C)n2cc(-c3ccc(COc4c(-c5c(C)c(F)cc6[nH]ncc56)c(C5CC5)cc5c(N(C)[C@H]6CCNC6)nc(OC[C@H]6CCN(C)C6)nc45)cc3)nn2)cc1` (atropisomer, axis not shown) [Example 18], the DC50 on KRAS G12D protein was 0.508 µM. Besides, the IC50 was 0.073 µM in assay [1] and 0.1 µM in assay [2].

On to `Cc1ncsc1-c1ccc([C@H](CO)NC(=O)[C@@H]2C[C@@H](O)CN2C(=O)[C@H](C(C)C)n2cc(-c3ccc(COc4c(-c5c(C)c(F)cc6[nH]ncc56)c(C5CC5)cc5c(N(C)[C@H]6CCNC6)nc(O[C@@H](C)[C@H](C)O)nc45)cc3)nn2)cc1` (atropisomer, axis not shown) [Example 19], for which, on KRAS G12D protein, the DC50 turned out to be 0.091 µM. Further, the IC50 was 0.05 µM in assay [1] and 0.095 µM in assay [2].

Regarding `CO[C@@H](C)[C@H](C)Oc1nc(N(C)[C@H]2CCNC2)c2cc(C3CC3)c(-c3c(C)c(F)cc4[nH]ncc34)c(OCc3ccc(-c4cn([C@H](C(=O)N5C[C@H](O)C[C@H]5C(=O)N[C@@H](CO)c5ccc(-c6scnc6C)cc5)C(C)C)nn4)cc3)c2n1` (atropisomer, axis not shown) [Example 20], the DC50 at KRAS G12D protein amounted to 0.041 µM. The IC50 was 0.021 µM in assay [1] and 0.038 µM in assay [2].

Take `CO[C@@H](C)COc1nc(N(C)[C@H]2CCNC2)c2cc(C3CC3)c(-c3c(C)c(F)cc4[nH]ncc34)c(OCc3ccc(-c4cn([C@H](C(=O)N5C[C@H](O)C[C@H]5C(=O)N[C@@H](CO)c5ccc(-n6ccnc6C)cc5)C(C)C)nn4)cc3)c2n1` (atropisomer, axis not shown) [Example 21]: the DC50 at KRAS G12D protein came out at 0.033 µM. Moreover, the IC50 in assay [1] stood at 0.053 µM; in assay [2], 0.047 µM.

For the molecule `Cc1ncsc1-c1ccc([C@H](CO)NC(=O)[C@@H]2C[C@@H](O)CN2C(=O)[C@H](C(C)C)n2cc(-c3ccc(COc4c(-c5c(C)c(F)cc6[nH]ncc56)c(C5CC5)cc5c(N(C)[C@H]6CCNC6)nc(OC[C@@H]6CCOC6)nc45)cc3)nn2)cc1` (atropisomer, axis not shown) [Example 23], on KRAS G12D protein, the DC50 came out at 0.031 µM. For the same molecule, the IC50 in assay [1] stood at 0.012 µM; in assay [2], 0.013 µM.

For the molecule `COCCOc1nc(N(C)[C@H]2CCNC2)c2cc(C3CC3)c(-c3c(C)c(F)cc4[nH]ncc34)c(OCc3ccc(-c4cn([C@H](C(=O)N5C[C@H](O)C[C@H]5C(=O)N[C@@H](CO)c5ccc(-c6scnc6C)cc5)C(C)C)nn4)cc3)c2n1` (atropisomer, axis not shown) [Example 24], the DC50 at KRAS G12D protein was determined as 0.048 µM. Further, the IC50 was 0.026 µM in assay [1] and 0.015 µM in assay [2].

For `CCn1nccc1-c1ccc([C@H](CO)NC(=O)[C@@H]2C[C@@H](O)CN2C(=O)[C@H](C(C)C)n2cc(-c3ccc(COc4c(-c5c(C)c(F)cc6[nH]ncc56)c(C5CC5)cc5c(N(C)[C@H]6CCNC6)nc(OC[C@H](C)OC)nc45)cc3)nn2)nc1` (atropisomer, axis not shown) [Example 25], on KRAS G12D protein, the DC50 came out at 0.075 µM. Also, the IC50 in assay [1] and in assay [2] was 0.006 µM throughout.
